Data from US20250034254A1, “USE OF ANTI-PD-1 ANTIBODY IN COMBINATION WITH CHEMOTHERAPY IN TREATING ESOPHAGEAL CANCER” (SHANGHAI JUNSHI BIOSCIENCES CO., LTD., priority 2021, published 2025).

Key:
[1] = test system: patients with advanced or metastatic esophageal squamous cell carcinoma; assay: Phase III clinical study of toripalimab (JS001) or placebo in combination with first-line chemotherapy: efficacy (ITT, RECIST 1.1); assay type: in vivo, human; settings: for Objective response rate (ORR) / Objective response rate (ORR), number of subjects: RECIST 1.1; for DCR inter-group difference (95% CI) / ORR inter-group difference (95% CI): JS001 + TP versus Placebo + TP; for Duration of response (DOR), median: patients with BOR of CR or PR
From the text: (§1) This is a randomized, double-blind, placebo-controlled, multicenter, phase III clinical study evaluating the efficacy and safety of toripalimab (JS001) or placebo in combination with first-line chemotherapy in patients with advanced or metastatic esophageal squamous cell carcinoma that are not previously treated with systemic chemotherapy and exploring the population with optimal biomarker prediction.
Eligible subjects shall meet the following criteria: (1) aged between 18 and 75 years; (2) histologically or pathologically confirmed metastatic or relapsed esophageal squamous cell carcinoma; (3) previously not treated for relapsed or metastatic ESCC; (4) at least one measurable lesion (according to RECIST 1.1); (5) an ECOG score of 0 or 1; (6) normal organ functions.
(§2) Approximately 514 patients with advanced or metastatic esophageal squamous cell carcinoma were randomized into two groups in a ratio of 1:1, with the treatment group receiving toripalimab in combination with first-line chemotherapy and the control group receiving placebo in combination with first-line chemotherapy. The patients were stratified by ECOG score (0 vs 1) and previous radiotherapy (present vs absence).
(§3) After randomization, the patients were subject to combination chemotherapy, receiving toripalimab or placebo+first-line chemotherapy for up to 6 cycles. After that, the patients were subject to maintenance therapy, continuously receiving toripalimab or placebo treatment until disease progression, intolerable toxicity, withdrawal from the study or up to 2 years.
(§4) Toripalimab 240 mg/placebo was administered by intravenous infusion once every three weeks (Q3W) in treatment cycles of 21 days. Treatment continued until the patients met the discontinuation criteria, i.e., recorded disease progression, unacceptable AE, investigator-assessed unsuitability for continued treatment, withdrawal of informed consent, 2 years of JS001 treatment or other reasons as specified in the protocol.
Toripalimab injection 240 mg/placebo was administered by intravenous infusion Q3W in treatment cycles of 21 days. Treatment continued until the patient met the discontinuation criteria, i.e., recorded disease progression, unacceptable AEs, investigator-assessed unsuitability for continued treatment, withdrawal of informed consent, 2 years of JS001 treatment or other reasons as specified in the protocol.
The patients received JS001/placebo+first-line chemotherapy during the combination chemotherapy period (up to 6 cycles). After that, the patients were subject to maintenance monotherapy, continuously receiving JS001/placebo treatment until disease progression, intolerable toxicity, withdrawal from the study or up to 2 years.
(§5) Intent-to-Treat (ITT) set: including all randomized patients during the primary study period. This analysis set was used as the primary analysis set for efficacy analysis. Per protocol set (PPS): including all ITT population having valid baseline information without major violation to the protocol that may affect the efficacy analysis. The PPS population was determined based on actual protocol violations before database lock of the study. The PPS population was used for sensitivity analysis of the primary efficacy endpoints as well as part of the secondary efficacy endpoints. Safety analysis set (SS): including all patients who received at least one dose of the study drug (JS001/placebo/chemotherapeutic agent).
Unless otherwise specified, the efficacy analysis was based on the ITT set by treatment. […]

[2] = Phase III clinical study of toripalimab (JS001) or placebo in combination with first-line chemotherapy: safety (SS population); settings: human, in vivo
From the text: as §1, §2, §3, §4, §5
All safety analyses were based on the SS population (514 patients), including 257 patients in the treatment group and 257 patients in the control group. Both groups were sufficiently exposed to JS001+chemotherapy treatment or placebo+chemotherapy treatment. The primary safety analysis results based on the SS population in the double-blind phase of the primary study are as follows: […]

[3] = BICR-assessed, listed as treatment group
[4] = ITT, as of Mar. 22, 2021, median follow-up 7.343 months
[5] = ITT, assessed by the investigator

JS001 + TP: toripalimab 240 mg Q3W in combination with first-line chemotherapy TP (paclitaxel 175 mg/m^2 + cisplatin 75 mg/m^2)
6-month DOR ([1]; BICR-assessed): 47.4%
12-month DOR (1-year DOR rate) ([1]; BICR-assessed): 28.2%
Best overall response: Complete response (CR) ([1]; BICR-assessed): (11.7) %
Best overall response: Complete response (CR), number of subjects ([1]; BICR-assessed): 30
Best overall response: Not applicable, number of subjects ([1]; BICR-assessed): 0
Best overall response: Not evaluable (NE), number of subjects ([1]; BICR-assessed): 0
Best overall response: Partial response (PR) ([1]; BICR-assessed): (57.6) %
Best overall response: Partial response (PR), number of subjects ([1]; BICR-assessed): 148
Best overall response: Progressive disease (PD) ([1]; BICR-assessed): (7.0) %
Best overall response: Progressive disease (PD), number of subjects ([1]; BICR-assessed): 18
Best overall response: Stable disease (SD), number of subjects ([1]; BICR-assessed): 51
Best overall response: non-CR/non-PD ([1]; BICR-assessed): (0.4) %
Best overall response: non-CR/non-PD, number of subjects ([1]; BICR-assessed): 1
DOR HR (95% CI) ([1]; BICR-assessed): 0.58 (0.412, 0.810), P = 0.00136
Disease control rate (DCR) ([1]; BICR-assessed): 89.1%
Disease control rate (DCR), number of subjects ([1]; BICR-assessed): 229
Objective response rate (ORR) ([1]; BICR-assessed): 69.3%
Objective response rate (ORR), number of subjects ([1]; BICR-assessed): 178
DCR inter-group difference (95% CI) ([1]; BICR-assessed): 7.1 (1.1, 13.1) %
ORR inter-group difference (95% CI) ([1]; BICR-assessed): 17.2 (9.0, 25.4) %
ORR inter-group difference (95% CI) [1, 3]: 17.2%
DOR HR (95% CI) [1, 3]: 0.58
Duration of response (DOR), median ([1]; BICR-assessed): 5.6 month
PFS subpopulation analysis ([1]; BIRC, ECOG score, previous radiotherapy, disease stage, PD-L1 expression, 11q13, TMB subpopulations): superiority in PFS
OS subpopulation analysis ([1]; ECOG score, previous radiotherapy, disease stage, PD-L1 expression, 11q13, TMB subpopulations): superiority in OS
OS hazard ratio (HR), treatment vs control group ([1]; ITT population): 0.58
median OS ([1]; ITT population): 17.0 months
prolongation of median OS versus chemotherapy ([1]; ITT population): 6 months
reduction of death hazard versus chemotherapy ([1]; ITT population): 42%
deaths reported, % of patients [1, 4]: 27.2%
deaths reported, number of patients [1, 4]: 70
1-year PFS rate ([1]; ITT, assessed by BIRC): 27.8%
PFS hazard ratio (HR), treatment vs control group ([1]; ITT, assessed by BIRC): 0.58
reduction of progression or death hazard versus chemotherapy ([1]; ITT, assessed by BIRC): 42%
median PFS ([1]; ITT, assessed by BIRC based on RECIST 1.1): 5.7 months
PFS hazard ratio (HR), treatment vs control group [1, 5]: 0.58
reduction of progression or death hazard versus chemotherapy [1, 5]: 42%
median PFS ([1]; ITT, assessed by the investigator based on RECIST 1.1): 7.0 months
6-month DOR ([1]; Investigator-assessed): 55.6%
12-month DOR ([1]; Investigator-assessed): 30.9%
Best overall response: Complete response (CR) ([1]; Investigator-assessed): (5.1) %
Best overall response: Complete response (CR), number of subjects ([1]; Investigator-assessed): 13
Best overall response: Not evaluable (NE), number of subjects ([1]; Investigator-assessed): 0
Best overall response: Partial response (PR) ([1]; Investigator-assessed): (67.3) %
Best overall response: Partial response (PR), number of subjects ([1]; Investigator-assessed): 173
Best overall response: Progressive disease (PD) ([1]; Investigator-assessed): (3.9) %
Best overall response: Progressive disease (PD), number of subjects ([1]; Investigator-assessed): 10
Best overall response: Stable disease (SD), number of subjects ([1]; Investigator-assessed): 52
DOR HR (95% CI) ([1]; Investigator-assessed): 0.50 (0.359, 0.684), P = 0.00001
Disease control rate (DCR) ([1]; Investigator-assessed): 92.6%
Disease control rate (DCR), number of subjects ([1]; Investigator-assessed): 238
Objective response rate (ORR) ([1]; Investigator-assessed): 72.4%
Objective response rate (ORR), number of subjects ([1]; Investigator-assessed): 186
DCR inter-group difference (95% CI) ([1]; Investigator-assessed): 5.5 (0.3, 10.7) %
ORR inter-group difference (95% CI) ([1]; Investigator-assessed): 14.1 (6.0, 22.2) %
ORR inter-group difference (95% CI) ([1]; Investigator-assessed, listed as treatment group): 14%
Duration of response (DOR), median ([1]; Investigator-assessed): 4.2 month
prolongation of DOR over the control group ([1]; assessed by BIRC): 1.4 months
SAE: anemia [2]: 1.2%
SAE: asthenia [2]: 1.2%
SAE: bone marrow depression [2]: 1.2%
SAE: decreased leukocyte count [2]: 2.3%
SAE: decreased neutrophil count [2]: 1.6%
SAE: decreased platelet count [2]: 1.6%
SAE: dysphagia [2]: 1.2%
SAE: infectious pneumonitis [2]: 5.1%
SAE: vomiting [2]: 8.9%
TEAE: alopecia [2]: 35.4%
TEAE: anemia [2]: 77.0%
TEAE: asthenia [2]: 41.6%
TEAE: constipation [2]: 24.1%
TEAE: decreased appetite [2]: 39.3%
TEAE: decreased leukocyte count [2]: 67.7%
TEAE: decreased neutrophil count [2]: 66.9%
TEAE: decreased platelet count [2]: 28.4%
TEAE: diarrhea [2]: 23.0%
TEAE: nausea [2]: 42.8%
TEAE: vomiting [2]: 40.1%
TEAE: weight loss [2]: 28.8%
immune-related adverse events (irAEs), % of patients [2]: 37%
immune-related adverse events (irAEs), number of patients [2]: 95
irAE resulting in death [2]: no irAE resulting in death was reported
irAEs of grade 3 or higher, % of subjects [2]: 6.6%
irAEs of grade 3 or higher, number of subjects [2]: 17
proportion of SAEs of grade 3 or higher as per CTCAE [2]: 30.0%
proportion of TEAEs of grade 3 or higher as per CTCAE [2]: 73.2%
proportion of patients who experienced at least 1 TEAE [2]: 99.2%
proportion of treatment-emerged SAEs [2]: 36.2%
